{"source": "patent US20250325508A1", "about": "“MODULATORS OF PROTEASOME DYNAMICS AND/OR FUNCTION, COMPOSITIONS, METHODS, AND THERAPEUTIC USES THEREOF” (TECHNION RESEARCH & DEVELOPMENT FOUNDATION LIMITED, priority 2022, published 2025)", "key": {"26S proteasome": {"system": "26S proteasome", "assay": "Proteasome subcellular localization in cultured cells (immunofluorescence, cell fractionation/Western blot)", "assay_type": "cell-based, human", "method": "Cells were incubated for 20 min in fractionation buffer [20 mM HEPES pH 7.3, 10 mM KCl, 5 mM ATP, 5 mM MgCl2, and protease inhibitor cocktail (Roche)], followed by the addition of Digitonin (0.01%). They were then mixed thoroughly and centrifuged at 1,000×g for 5 min. The supernatant was collected as cytosolic fraction, and the pellet was washed with fractionation buffer supplemented with NP-40 (0.05%) and centrifuged, and the pellet (nuclei) was resuspended in fractionation buffer supplemented with sodium deoxycholate (0.5%), followed by its sonication.\nCells were washed twice with ice cold PBS and scraped into lysis buffer (50 mM Tris-HCl, pH 7.4, 130 mM NaCl, 0.5% NP-40) supplemented with freshly added protease inhibitor cocktail, 5 mM ATP, 10 mM iodoacetamide, and 5 mM N-ethyl maleimide. Protein concentration was measured by the BCA assay according to the manufacturer's instructions (Pierce, Rockford, IL). 30 μg of cellular protein were resolved via SDS-PAGE, transferred to a nitrocellulose membrane and immunoblotted with the appropriate antibody.\nCells were seeded on glass cover slips for 36 h. Following the indicated treatments, they were fixed with 4% PFA for 15 min, washed with phosphate-buffered saline (PBS) and incubated in PBS containing 10% goat serum for 1 h at room temperature, followed by 2 h incubation with the indicated primary antibody. Following extensive wash with PBS, the fixed cells were incubated with the relevant secondary antibody for 1 h, washed and mounted. Images were acquired using Zeiss LSM 700 confocal microscope (Zeiss, Oberkochen, Germany). […]"}, "exportin1": {"target": "T1, exportin1 (Homo sapiens, UniProt O14980)", "T1 construct": "endogenous in cells; host or cells: HeLa", "T1 sequence (O14980 whole entry)": "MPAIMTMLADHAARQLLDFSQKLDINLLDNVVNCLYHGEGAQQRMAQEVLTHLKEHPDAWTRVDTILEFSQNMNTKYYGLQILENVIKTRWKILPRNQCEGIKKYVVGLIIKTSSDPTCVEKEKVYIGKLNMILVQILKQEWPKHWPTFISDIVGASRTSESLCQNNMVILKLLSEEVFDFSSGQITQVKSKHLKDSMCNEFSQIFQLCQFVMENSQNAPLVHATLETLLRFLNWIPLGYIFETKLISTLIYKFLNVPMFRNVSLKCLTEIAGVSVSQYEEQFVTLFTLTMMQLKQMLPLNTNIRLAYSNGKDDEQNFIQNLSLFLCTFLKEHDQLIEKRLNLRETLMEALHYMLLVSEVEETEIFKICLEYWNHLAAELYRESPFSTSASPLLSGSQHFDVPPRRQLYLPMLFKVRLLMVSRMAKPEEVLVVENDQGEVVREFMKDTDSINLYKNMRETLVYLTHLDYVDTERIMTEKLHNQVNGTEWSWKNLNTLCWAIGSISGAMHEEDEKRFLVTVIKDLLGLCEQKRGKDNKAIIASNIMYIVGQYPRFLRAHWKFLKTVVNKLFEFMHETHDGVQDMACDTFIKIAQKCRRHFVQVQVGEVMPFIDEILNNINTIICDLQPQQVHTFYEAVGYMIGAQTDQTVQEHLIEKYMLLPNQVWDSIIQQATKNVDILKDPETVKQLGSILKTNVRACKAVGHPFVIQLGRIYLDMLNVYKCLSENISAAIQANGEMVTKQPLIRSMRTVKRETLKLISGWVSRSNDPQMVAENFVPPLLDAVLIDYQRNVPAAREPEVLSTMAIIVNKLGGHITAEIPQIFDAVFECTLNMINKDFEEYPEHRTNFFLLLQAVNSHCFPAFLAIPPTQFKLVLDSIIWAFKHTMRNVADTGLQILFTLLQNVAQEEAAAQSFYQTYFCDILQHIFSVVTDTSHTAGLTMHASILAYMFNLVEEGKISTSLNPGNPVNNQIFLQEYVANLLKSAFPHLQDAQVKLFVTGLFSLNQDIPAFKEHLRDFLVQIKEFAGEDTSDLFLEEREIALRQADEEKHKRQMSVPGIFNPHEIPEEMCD", "assay": "Localization of exportin1 substrates (p65, APC, NES-GFP)", "assay_type": "cell-based", "conditions": "HeLa cells", "method": "Cells were seeded on glass cover slips for 36 h. Following the indicated treatments, they were fixed with 4% PFA for 15 min, washed with phosphate-buffered saline (PBS) and incubated in PBS containing 10% goat serum for 1 h at room temperature, followed by 2 h incubation with the indicated primary antibody. Following extensive wash with PBS, the fixed cells were incubated with the relevant secondary antibody for 1 h, washed and mounted. Images were acquired using Zeiss LSM 700 confocal microscope (Zeiss, Oberkochen, Germany)."}, "HeLa cells [1]": {"system": "HeLa cells", "assay": "Degradation of radiolabeled proteins", "assay_type": "cell-based, human", "conditions": "short-term starvation", "method": "Cells were labeled with [^35S]-methionine and cysteine (20 μCi/ml) for 16 h. This was followed by extensive washing and further incubation in a medium containing 2 mM of the two unlabeled amino acids for 8 h. Degradation rates were assessed by determining the release of labeled amino acids to the incubation medium relative to the radioactivity remained in the cellular proteins (using Trichloroacetic acid precipitation to separate between the two) [R. Gropper et al., Biomed Biochim Acta 50, 321-332 (1991)]. The figure presents mean+/−SD and Student's T-Test p-values of three replicates."}, "Ubiquitin conjugates": {"system": "Ubiquitin conjugates", "assay": "Ubiquitin conjugates levels (in-cell Western)", "assay_type": "cell-based, human", "conditions": "stress, HeLa cells", "method": "Cells were seeded in a 96-well plate at a density of 15,000 cells/well. ˜36 h later, cells were treated as described and were visualized live, using high-throughput fluorescence microscopy (IXM-C, Molecular Devices) under a controlled environment (21% O2, 5% CO2, 37° C.). Hoechst 33342 was used to stain nuclei of all cells, and SYTOX™ (Thermo) was used to stain dead cells. Data analysis was performed using the Live/Dead module of the MetaXpress software (Molecular Devices). […] For ubiquitination, the inventors used in-cell Western blotting using an anti-Ub-conj [O. Braten et al., Proc. Natl. Acad. Sci. 113, E4639-47 (2016), and a secondary fluorescent antibody. Intensities were quantified using Li-Cor imager and software (Odyssey)."}, "HeLa cells [2]": {"system": "HeLa cells", "assay": "Amino acids level measurement (LC-MS)", "assay_type": "cell-based, human", "method": "Metabolic analysis was carried out as previously described [G. M. MacKay et al., 1st Ed. (Elsevier Inc., 2015)]. Briefly, cells were rapidly washed 3 times with ice-cold PBS and extracted with an aqueous solution of 50% Methanol, and 30% Acetonitrile. Samples were centrifuged at 16,000×g for 10 min at 4° C., and the supernatants were analyzed using HPLC-MS (Q-Exactive Orbitrap Mass Spectrometer (Thermo Scientific) coupled to Thermo Scientific UltiMate 3000 HPLC system). The HPLC setup consisted of a ZIC-PHILIC column (SeQuant, 150×2.1 mm, 5 μm, Merck) with a ZIC-PHILIC guard column (SeQuant, 20×2.1 mm). The aqueous mobile phase solvent was 20 mM ammonium carbonate adjusted to pH 9.4 with 0.1% ammonium hydroxide. The organic mobile phase was acetonitrile. Amino acids and other metabolites were separated over a 15 min linear gradient from 80% organic to 80% aqueous. The column temperature was 45° C., the flow rate 200 μl/min, and the run time 27 min. All metabolites were detected across a mass range of 75-1,000 m/z using the Q-Exactive mass spectrometer at a resolution of 35,000 (at 200 m/z) with electrospray ionization and polarity switching mode. Mass accuracy obtained for all metabolites was below 5 ppm. Data were acquired with Thermo Xcalibur software. The peak areas of different amino acids were determined using Thermo TraceFinder software through which metabolites were identified by the exact mass of the singly charged ion and the known retention time on the HPLC column. Commercially available standard compounds had been analyzed before to determine ion masses and retention times on the ZIC-PHILIC column. Protein quantitation based on the Lowry method was performed for normalization. The figure presents mean+/−SD of three replicates."}, "proteasome": {"system": "proteasome", "assay": "Mass spectrometric analysis of proteasome sub-complexes' composition (assembly)", "assay_type": "cell-based, human", "conditions": "starvation plus substance", "method": "Analysis of proteasome assembly and sub-complex composition was performed using the MCP20 antibody against the α6 proteasome subunit, as previously described using the MCP21 antibody against α2 [B. Fabre et al., Mol. Cell. Proteomics 12, 687-699 (2013)]. Briefly, following the indicated treatments, cell lysates were immunoprecipitated using the α6 antibody, and the precipitates were subjected to proteomic mass spectrometry. Intensities of the different proteasomal subunits were normalized according to the median of intensities measured for all 20S subunits. Ratios were calculated for each condition relative to untreated cells (control). The color scale represents Log 2 fold-change."}}}
{"smiles": "CCC(=C/[C@H](C)C/C=C/C(C)=C/[C@@H](C)C(=O)[C@@H](C)[C@H](O)[C@@H](C)C/C(C)=C/C(=O)O)/C=C/[C@@H]1OC(=O)C=C[C@@H]1C", "note": "[Leptomycin B]", "values": [{"measurement": "proteasome translocation from the nucleus to the cytosol", "setting": "26S proteasome; amino acid starvation, substance added to starvation medium", "result": "inhibition of the translocation"}, {"measurement": "proteasome localization", "setting": "26S proteasome; non-stressed / well-fed cells, complete medium", "result": "nuclear accumulation of the proteasome"}, {"measurement": "nuclear export/localization of exportin1 substrates p65 subunit of NF-κB and APC", "setting": "exportin1", "result": "inhibited nuclear export of two known substrates of exportin1"}, {"measurement": "localization of GFP fused to a nuclear export signal (NES)", "setting": "exportin1; 8 h", "result": "nuclear accumulation of GFP fused to a nuclear export signal (NES)"}, {"measurement": "protein breakdown (degradation of radiolabeled proteins)", "setting": "HeLa cells [1]", "result": "near annulment of protein breakdown stimulated by short-term starvation"}, {"measurement": "degradation and depletion of ubiquitin adducts", "setting": "Ubiquitin conjugates", "result": "inhibited degradation and depletion of ubiquitin adducts"}, {"measurement": "gain in amino acids produced by Torin1", "setting": "HeLa cells [2]; Torin1 plus LMB", "result": "significantly inhibited the gain in amino acids produced by Torin1"}, {"measurement": "level of Glu", "setting": "HeLa cells [2]; addition of LMB to Torin1-treated cells", "result": "unaffected"}, {"measurement": "effect of stress on proteasome assembly (20S and 19S sub-complexes)", "setting": "proteasome", "result": "did not reverse the effect of stress on proteasome assembly"}]}
